# Results: patent US8431593B2, “Heteroaryl amide derivatives” (H. Lundbeck A/S, priority 2006, dated 2013)
# Target: T1, P2X7 receptor (Homo sapiens, UniProt Q99572)
# T1 construct: host or cells: SH-SY5Y
# T1 sequence (Q99572 1-595): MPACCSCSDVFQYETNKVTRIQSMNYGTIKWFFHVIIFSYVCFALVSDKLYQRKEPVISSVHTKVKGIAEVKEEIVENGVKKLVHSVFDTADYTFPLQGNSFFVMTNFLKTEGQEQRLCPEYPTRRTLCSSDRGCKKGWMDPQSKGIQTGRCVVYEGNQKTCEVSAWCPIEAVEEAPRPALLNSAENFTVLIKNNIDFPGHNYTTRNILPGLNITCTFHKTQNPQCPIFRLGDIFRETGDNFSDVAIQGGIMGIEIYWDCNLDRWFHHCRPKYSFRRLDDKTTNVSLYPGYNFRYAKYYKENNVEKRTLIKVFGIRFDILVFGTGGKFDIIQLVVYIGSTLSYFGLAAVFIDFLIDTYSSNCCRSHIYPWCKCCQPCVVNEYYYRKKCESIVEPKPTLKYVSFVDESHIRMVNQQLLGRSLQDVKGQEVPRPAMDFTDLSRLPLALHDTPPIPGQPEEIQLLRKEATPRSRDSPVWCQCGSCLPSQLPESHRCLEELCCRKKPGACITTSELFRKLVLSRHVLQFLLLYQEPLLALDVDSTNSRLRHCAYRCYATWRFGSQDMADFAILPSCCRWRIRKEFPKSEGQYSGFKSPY
# Assay: P2X7 calcium mobilization assay, high throughput, antagonist activity (Example 4A)
# Type: cell-based
# Settings: not given
# Experimental: One day prior to the experiment, cells are plated at a density of 100,000 cells/well in a 96 well black/clear TC plate (Corning® Costar®, Sigma-Aldrich Co., St. Louis, Mo.). […] After one hour dye incubation, wells are rinsed once with 50 μL assay solution, and are then incubated for an hour at room temperature with 100 μL assay solution containing the test compound. […] After the one hour incubation, plates are transferred to a FLIPR^TETRA instrument (Molecular Devices, Sunnyvale, Calif.) for calcium mobilization analysis.
# First, the average maximum relative fluorescent unit (RFU) response from the negative control wells (no agonist) is subtracted from the maximum response detected for each of the other experimental wells. Second, average maximum RFU response is calculated for the positive control wells (agonist wells).
row,Compound,IC50 [nM]
1,"CCOC(=O)c1cn2c(C(=O)NCC34CC5CC(CC(C5)C3)C4)cccc2n1 [Compound 2, ethyl 5-[(adamantan-1-ylmethyl)carbamoyl]imi-dazo[1,2-a]pyridine-2-carboxylate]",< 2000
2,"O=C(NCC12CC3CC(CC(C3)C1)C2)c1cccc2nc(CO)cn12 [Compound 3, N-(adamantan-1-ylmethyl)-2-(hydroxymethyl)imi-dazo[1,2-a]pyridine-5-carboxamide]",< 2000
3,"CCOC(=O)Cc1cn2c(C(=O)NCC34CC5CC(CC(C5)C3)C4)cccc2n1 [Compound 4, ethyl {5-[(adamantan-1-ylmethyl)carbamoyl]imi-dazo[1,2-a]pyridin-2-yl}acetate]",< 2000

# Same assay, conditions: 50% decrease in the fluorescence response of cells exposed to 80 μM 2′(3′)-O-(4-benzoyl-benzoyl)adenosine 5′-triphosphate; Example 4A; read-out: IC50
row,IC50 [nM],Compound
1,< 2000,"CC1(C)C2CC[C@H](CNC(=O)c3cccc4nc(C(=O)N5CCC[C@@H](N)C5)cn34)C1C2 (relative stereo) [Compound 548, rel-2-{[(3R)-3-aminopiperidin-1-yl]carbonyl}-N-{[(2S)-6,6-dimethylbicyclo[3.1.1]hept-2-yl]methyl}imidazo[1,2-a]pyridine-5-carboxamide]"
2,< 2000,"CC1(C)C2CC[C@H](CNC(=O)c3cccc4nc(CC(=O)N5CC[C@@H](N)C5)cn34)C1C2 (relative stereo) [Compound 549, rel-2-{2-[(3R)-3-aminopyrrolidin-1-yl]-2-oxoethyl}-N-{[(2S)-6,6-dimethylbicyclo[3.1.1]hept-2-yl]methyl}imidazo[1,2-a]pyridine-5-carboxamide]"
3,< 2000,"CC1(C)C2CC[C@H](CNC(=O)c3cccc4nc(CC(=O)N5CCC[C@@H](N)C5)cn34)C1C2 (relative stereo) [Compound 550, rel-2-{2-[(3R)-3-aminopiperidin-1-yl]-2-oxoethyl}-N-{[(2S)-6,6-dimethylbicyclo[3.1.1]hept-2-yl]methyl}imidazo[1,2-a]pyridine-5-carboxamide]"
4,< 2000,"CC1(C)[C@@H]2CC[C@@H](CNC(=O)c3cccc4nc(CC(=O)N5C[C@H]6CC5CN6)cn34)[C@H]1C2 (stereo in doubt) [Compound 558, 2-{2-[(1R,4R)-2,5-diazabicyclo[2.2.1]hept-2-yl]-2-oxoethyl}-N-{[(1R,2R,5R)-6,6-dimethylbicyclo [3.1.1]hept-2-yl]methyl}imidazo[1,2-a]pyridine-5-carboxamide]"

# Same assay, conditions: 50% decrease in the fluorescence response of cells exposed to 80 μM of 2′(3′)-O-(4-benzoyl-benzoyl)adenosine 5′-triphosphate; Example 4A; read-out: IC50
row,IC50 [nM],Compound
1,< 2000,"CC1(C)C2CC[C@H](CNC(=O)c3cccc4nc(CC(=O)O)cn34)C1C2 (stereo in doubt) [Compound 682, (5-{[(6,6-dimethylbicyclo[3.1.1]hept-2-yl)methyl]carbamoyl}imidazo[1,2-a]pyridin-2-yl)acetic acid]"
2,< 2000,"CC(C)CC(CNC(=O)c1cccc2nc(CN3CC[C@@H](NC(=O)OC(C)(C)C)C3)cn12)C1CCCCC1 (stereo in doubt) [Compound 738, tert-butyl [1-({5-[(2-cyclohexyl-4-methylpentyl)carbamoyl]imidazo [1,2-a]pyridin-2-yl}methyl)pyrrolidin-3-yl]carbamate]"
3,< 2000,"CC(C)N[C@@H]1CCN(C(=O)c2cn3c(NC(=O)CC45CC6CC(CC(C6)C4)C5)cccc3n2)C1 (stereo in doubt) [Compound 743, 2-adamantan-1-yl-N-(2-{[3-(isopropylamino)pyrrolidin-1-yl]carbonyl}imidazo[1,2-a]pyridin-5-yl)acetamide]"
4,< 2000,"CC(C(=O)N1CC[C@@H](NC(=O)OC(C)(C)C)C1)c1cn2c(C(=O)NCC34CC5CC(CC(C5)C3)C4)cccc2n1 (stereo in doubt) [Compound 749, tert-butyl [1-(2-{5-[(adamantan-1-ylmethyl)carbamoyl]imidazo[1,2-a]pyridin-2-yl}propanoyl)pyrrolidin-3-yl]carbamate]"
5,< 2000,"CC(C(=O)N1CCC[C@@H](NC(=O)OC(C)(C)C)C1)c1cn2c(C(=O)NCC34CC5CC(CC(C5)C3)C4)cccc2n1 (stereo in doubt) [Compound 750, tert-butyl [1-(2-{5-[(adamantan-1-ylmethyl)carbamoyl]imidazo[1,2-a]pyridin-2-yl}propanoyl)piperidin-3-yl]carbamate]"
6,< 2000,"CC(C)CC(CNC(=O)c1cccc2nc(CN3CC[C@@H](N)C3)cn12)c1ccc(C(F)(F)F)cc1 (stereo in doubt) [Compound 763, 2-[(3-aminopyrrolidin-1-yl)methyl]-N-{4-methyl-2-[4-(trifluoromethyl)phenyl]pentyl}imidazo [1,2-a] pyridine-5-carboxamide]"
7,< 2000,"CC(C)(C)OC(=O)N[C@@H]1CCN(Cc2cn3c(C(=O)NCC(CC4CC4)c4ccccc4)cccc3n2)C1 (stereo in doubt) [Compound 776, tert-butyl [1-({5-[(3-cyclopropyl-2-phenylpropyl)carbamoyl]imidazo[1,2-a]pyridin-2-yl}methyl)pyrrolidin-3-yl]carbamate]"
8,< 2000,"CC(C)(C)OC(=O)N[C@@H]1CCN(Cc2cn3c(C(=O)NCC(CC4CCC4)c4ccccc4)cccc3n2)C1 (stereo in doubt) [Compound 777, tert-butyl [1-({5-[(3-cyclobutyl-2-phenylpropyl)carbamoyl]imidazo[1,2-a]pyridin-2-yl}methyl)pyrrolidin-3-yl]carbamate]"
9,< 2000,"CC(C)(C)OC(=O)N[C@@H]1CCN(Cc2cn3c(C(=O)NCC(CC4CCCC4)c4ccccc4)cccc3n2)C1 (stereo in doubt) [Compound 784, tert-butyl [1-({5-[(3-cyclopentyl-2-phenylpropyl)carbamoyl]imidazo[1,2-a]pyridin-2-yl}methyl)pyrrolidin-3-yl]carbamate]"

# Same assay, conditions: 50% decrease in the fluorescence response of cells exposed to 80 μM of 2′(3′)-O-(4-benzoyl-benzoyl)adenosine 5′-triphosphate; determined as in Example 4A; read-out: IC50
row,IC50 [nM],Compound
1,< 2000,"O=C(NCC12CC3CC(CC(C3)C1)C2)c1cccc2nc([C@H]3CCCC[C@H]3C(=O)O)cn12 (relative stereo) [Compound 995, rel-(1R,2S)-2-{5-[(adamantan-1-ylmethyl)carbamoyl]imidazo[1,2-a]pyridin-2-yl} cyclohexane-carboxylic acid]"
2,< 2000,"CCOC(=O)[C@@H]1CCCC[C@@H]1c1cn2c(C(=O)NCC34CC5CC(CC(C5)C3)C4)cccc2n1 (relative stereo) [Compound 996, ethyl rel-(1R,2S)-2-{5-[(adamantan-1-ylmethyl)carbamoyl]imidazo[1,2-a]pyridin-2-yl} cyclohexane-carboxylate]"

# Same assay, conditions: SH-SY5Y cells; 50% decrease in fluorescence response to 80 μM BzATP; read-out: IC50
row,IC50 [nM],Compound
1,< 2000,"CC(C)C(=O)N[C@@H]1CCN(Cc2cn3c(C(=O)NCC45CC6CC(CC(C6)C4)C5)cccc3n2)C1 (stereo in doubt) [Compound 71, N-(adamantan-1-ylmethyl)-2-{[3-(isobutyryl-amino)pyrrolidin-1-yl]methyl}imidazo[1,2-a]pyridine-5-carboxamide]"
2,< 2000,"N[C@H]1CCN(C(=O)Cc2cn3c(C(=O)NCC45CC6CC(CC(C6)C4)C5)cccc3n2)C1 (stereo in doubt) [Compound 144, N-(adamantan-1-ylmethyl)-2-[2-(3-aminopyrrolidin-1-yl)-2-oxoethyl]imidazo[1,2-a]pyridine-5-carboxamide]"
3,< 2000,"O=C(NCC12CC3CC(CC(C3)C1)C2)c1cccc2nccn12 [Compound 1, N-(adamantan-1-ylmethyl)imidazo[1,2-a]pyridine-5-carboxamide]"

# Same assay, conditions: fluorescence response of cells exposed to 80 μM 2′(3′)-O-(4-benzoyl-benzoyl)adenosine 5′-triphosphate; Example 4A; read-out: IC50
row,IC50 [nM],Compound
1,< 2000,"C[C@@H]1COC[C@H](C)N1Cc1cn2c(C(=O)NCC34CC5CC(CC(C5)C3)C4)cccc2n1 (relative stereo) [Compound 343, rel-N-(adamantan-l-ylmethy)-2-{[(3R, 5S)-3,5-dimethylmorpholin-4-yl]methyl}imidazo[1,2-a]pyridine-5-carboxamide]"
2,< 2000,"CC1(C)[C@H]2CC[C@@H](CNC(=O)c3cccc4nc(C(=O)N5C[C@H]6CC5CN6)cn34)[C@@H]1C2 (stereo in doubt) [Compound 302, 2-[(1R,4R)-2,5-diazabicyclo[2.2.1]hept-2-ylcarbonyl]-N-{[(1S,2R,5S)-6,6-dimethylbicyclo[3.1.1]hept-2-yl]methyl}imidazo[1,2-a]pyridine-5-carboxamide]"
3,< 2000,"CC1(C)[C@H]2CC[C@@H](CNC(=O)c3cccc4nc(C(=O)N5C[C@@H]6CC5CN6)cn34)[C@@H]1C2 (stereo in doubt) [Compound 303, 2-[(1S,4S)-2,5-diazabicyclo[2.2.1]hept-2-ylcarbonyl]-N-{[(1S,2R,5S)-6,6-dimethylbicyclo[3.1.1]hept-2-yl]methyl}imidazo[1,2-a]pyridine-5-carboxamide]"
